Earlier results in paper PMC7401249 (Marine Drugs, 2020).
“Also recorded” adds a separate entry of the source.

Row | Substance | inhibition of CaV3.1 current over CaV3.2 (CaV3.1) | hCaV3.2 current block among three CaV3.x subtypes (hCaV3.2) | NaV1.7 block (NaV1.7)
1 | ProTx-I | selective inhibition | – | –
2 | ProTx-II | – | selectively block the hCaV3.2 current | NaV1.7 selective blocker; also recorded: inhibits NaV1.7
